Assay results: the kinase profiling compilation of Christmann-Franck et al. (2016)

Experiments:
Assay in all cases: KINOMEscan competition binding
Settings in all cases: compound 10.0 µM
IKBKB (human) = IKBKB (human) (UniProt O14920)
MAP3K11 (human) = MAP3K11 (human) (UniProt Q16584)
CSNK1G1 (human) = CSNK1G1 (human) (UniProt Q9HCP0)
CDC42BPG (human) = CDC42BPG (human) (UniProt Q6DT37)
MAPK4 (human) = MAPK4 (human) (UniProt P31152)
PRKD2 (human) = PRKD2 (human) (UniProt Q9BZL6)
RPS6KA1 KD2 (human) = RPS6KA1 KD2 (human) (UniProt Q15418)
BRSK1 (human) = BRSK1 (human) (UniProt Q8TDC3)
SRPK1 (human) = SRPK1 (human) (UniProt Q96SB4)
CDK15 (human) = CDK15 (human) (UniProt Q96Q40)
CAMK2A (human) = CAMK2A (human) (UniProt Q9UQM7)
DCLK2 (human) = DCLK2 (human) (UniProt Q8N568)
[1] = target: TYK2 JH1 catalytic (human) (UniProt P29597)
MAP3K10 (human) = MAP3K10 (human) (UniProt Q02779)
STK11 (human) = STK11 (human) (UniProt Q15831)
[2] = target: JAK1 JH1 catalytic (human) (UniProt P23458)
RPS6KA2 KD1 (human) = RPS6KA2 KD1 (human) (UniProt Q15349)
ACVRL1 (human) = ACVRL1 (human) (UniProt P37023)
EPHB2 (human) = EPHB2 (human) (UniProt P29323)
MAPK9 (human) = MAPK9 (human) (UniProt P45984)
FYN (human) = FYN (human) (UniProt P06241)
CHUK (human) = CHUK (human) (UniProt O15111)
WEE1 (human) = WEE1 (human) (UniProt P30291)
MAPKAPK2 (human) = MAPKAPK2 (human) (UniProt P49137)
STK33 (human) = STK33 (human) (UniProt Q9BYT3)
TNK2 (human) = TNK2 (human) (UniProt Q07912)
SGK110 (human) = SGK110 (human) (UniProt P0C264)
MAP2K2 (human) = MAP2K2 (human) (UniProt P36507)
STK17A (human) = STK17A (human) (UniProt Q9UEE5)
NTRK2 (human) = NTRK2 (human) (UniProt Q16620)
RIOK3 (human) = RIOK3 (human) (UniProt O14730)
CDK18 (human) = CDK18 (human) (UniProt Q07002)
CDK7 (human) = CDK7 (human) (UniProt P50613)
MKNK1 (human) = MKNK1 (human) (UniProt Q9BUB5)
PRKACA (human) = PRKACA (human) (UniProt P17612)
TTK (human) = TTK (human) (UniProt P33981)
PDGFRB (human) = PDGFRB (human) (UniProt P09619)
PLK1 (human) = PLK1 (human) (UniProt P53350)
MYLK2 (human) = MYLK2 (human) (UniProt Q9H1R3)
TAOK3 (human) = TAOK3 (human) (UniProt Q9H2K8)

MKNK1 (human), sequence (Q9BUB5 whole entry, looked up): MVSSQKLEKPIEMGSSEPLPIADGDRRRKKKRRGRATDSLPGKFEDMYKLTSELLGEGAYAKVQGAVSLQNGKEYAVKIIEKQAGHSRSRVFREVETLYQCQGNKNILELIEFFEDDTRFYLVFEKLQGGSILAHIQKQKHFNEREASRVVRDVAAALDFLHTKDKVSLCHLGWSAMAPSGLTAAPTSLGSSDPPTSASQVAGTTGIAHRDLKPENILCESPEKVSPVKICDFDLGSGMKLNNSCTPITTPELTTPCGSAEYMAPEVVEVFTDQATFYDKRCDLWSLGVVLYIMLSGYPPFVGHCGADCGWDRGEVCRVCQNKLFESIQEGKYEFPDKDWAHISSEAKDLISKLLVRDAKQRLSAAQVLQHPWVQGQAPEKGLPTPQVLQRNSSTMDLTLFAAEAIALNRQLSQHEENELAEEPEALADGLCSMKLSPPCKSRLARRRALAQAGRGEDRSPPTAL
FYN (human), sequence (P06241 whole entry, looked up): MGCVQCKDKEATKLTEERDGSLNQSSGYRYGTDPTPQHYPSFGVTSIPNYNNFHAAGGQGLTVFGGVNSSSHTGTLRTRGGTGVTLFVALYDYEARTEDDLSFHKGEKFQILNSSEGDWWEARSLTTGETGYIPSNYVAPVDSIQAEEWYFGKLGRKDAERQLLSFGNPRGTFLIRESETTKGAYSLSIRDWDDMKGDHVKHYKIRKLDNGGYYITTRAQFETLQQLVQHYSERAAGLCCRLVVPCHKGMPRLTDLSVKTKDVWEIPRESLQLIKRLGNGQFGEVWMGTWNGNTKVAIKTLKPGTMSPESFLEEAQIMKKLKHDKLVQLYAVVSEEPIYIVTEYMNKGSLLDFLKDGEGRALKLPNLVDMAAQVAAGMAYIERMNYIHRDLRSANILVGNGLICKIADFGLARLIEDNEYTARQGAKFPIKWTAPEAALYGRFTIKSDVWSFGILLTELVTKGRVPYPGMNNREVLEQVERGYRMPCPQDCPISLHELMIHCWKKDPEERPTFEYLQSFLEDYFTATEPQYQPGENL
PRKD2 (human), sequence (Q9BZL6 whole entry, looked up): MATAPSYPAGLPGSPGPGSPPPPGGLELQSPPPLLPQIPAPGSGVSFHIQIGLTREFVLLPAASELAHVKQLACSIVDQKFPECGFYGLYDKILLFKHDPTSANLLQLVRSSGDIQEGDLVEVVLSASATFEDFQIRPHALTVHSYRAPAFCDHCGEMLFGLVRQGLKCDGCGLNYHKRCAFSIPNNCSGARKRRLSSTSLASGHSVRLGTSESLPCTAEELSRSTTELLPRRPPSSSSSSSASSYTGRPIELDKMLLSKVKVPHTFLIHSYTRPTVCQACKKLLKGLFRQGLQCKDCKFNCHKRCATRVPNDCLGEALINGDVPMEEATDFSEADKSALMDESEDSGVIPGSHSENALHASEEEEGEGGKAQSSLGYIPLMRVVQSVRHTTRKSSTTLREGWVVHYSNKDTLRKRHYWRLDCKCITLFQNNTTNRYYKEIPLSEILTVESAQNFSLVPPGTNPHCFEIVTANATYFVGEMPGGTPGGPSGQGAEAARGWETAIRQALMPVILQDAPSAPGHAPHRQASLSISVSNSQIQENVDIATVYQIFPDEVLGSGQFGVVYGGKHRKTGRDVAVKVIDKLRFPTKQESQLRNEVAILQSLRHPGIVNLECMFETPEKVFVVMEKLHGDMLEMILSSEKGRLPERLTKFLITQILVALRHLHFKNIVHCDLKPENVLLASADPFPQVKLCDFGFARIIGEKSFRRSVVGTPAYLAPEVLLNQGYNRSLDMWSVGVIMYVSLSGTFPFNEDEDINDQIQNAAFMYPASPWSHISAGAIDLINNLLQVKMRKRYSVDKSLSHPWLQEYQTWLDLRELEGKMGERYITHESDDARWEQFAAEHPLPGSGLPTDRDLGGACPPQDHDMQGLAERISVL
MAP3K10 (human), sequence (Q02779 whole entry, looked up): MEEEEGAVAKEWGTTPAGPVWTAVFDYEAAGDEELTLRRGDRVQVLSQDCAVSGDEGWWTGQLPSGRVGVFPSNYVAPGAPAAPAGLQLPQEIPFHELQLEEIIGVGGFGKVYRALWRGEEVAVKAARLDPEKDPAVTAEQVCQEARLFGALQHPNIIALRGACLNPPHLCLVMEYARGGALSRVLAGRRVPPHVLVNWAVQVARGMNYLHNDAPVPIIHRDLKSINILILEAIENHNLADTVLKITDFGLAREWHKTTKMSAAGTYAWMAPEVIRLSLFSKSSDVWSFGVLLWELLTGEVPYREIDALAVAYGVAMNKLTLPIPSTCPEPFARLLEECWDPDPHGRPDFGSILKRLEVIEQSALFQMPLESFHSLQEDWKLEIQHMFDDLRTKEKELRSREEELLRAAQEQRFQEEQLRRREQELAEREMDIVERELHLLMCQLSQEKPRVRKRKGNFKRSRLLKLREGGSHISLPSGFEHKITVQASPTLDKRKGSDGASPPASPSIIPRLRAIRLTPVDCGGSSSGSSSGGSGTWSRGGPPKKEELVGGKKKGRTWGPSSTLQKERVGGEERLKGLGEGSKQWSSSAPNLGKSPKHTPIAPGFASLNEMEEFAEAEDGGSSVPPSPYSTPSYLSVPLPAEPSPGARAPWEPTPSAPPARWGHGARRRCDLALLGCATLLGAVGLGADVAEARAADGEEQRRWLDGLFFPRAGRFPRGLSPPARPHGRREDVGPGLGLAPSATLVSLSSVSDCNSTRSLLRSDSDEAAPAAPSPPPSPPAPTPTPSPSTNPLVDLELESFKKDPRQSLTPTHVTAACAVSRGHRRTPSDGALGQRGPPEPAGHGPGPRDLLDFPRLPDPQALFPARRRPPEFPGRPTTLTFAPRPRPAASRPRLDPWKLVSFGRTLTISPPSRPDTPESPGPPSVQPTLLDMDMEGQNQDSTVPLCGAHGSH
PLK1 (human), sequence (P53350 whole entry, looked up): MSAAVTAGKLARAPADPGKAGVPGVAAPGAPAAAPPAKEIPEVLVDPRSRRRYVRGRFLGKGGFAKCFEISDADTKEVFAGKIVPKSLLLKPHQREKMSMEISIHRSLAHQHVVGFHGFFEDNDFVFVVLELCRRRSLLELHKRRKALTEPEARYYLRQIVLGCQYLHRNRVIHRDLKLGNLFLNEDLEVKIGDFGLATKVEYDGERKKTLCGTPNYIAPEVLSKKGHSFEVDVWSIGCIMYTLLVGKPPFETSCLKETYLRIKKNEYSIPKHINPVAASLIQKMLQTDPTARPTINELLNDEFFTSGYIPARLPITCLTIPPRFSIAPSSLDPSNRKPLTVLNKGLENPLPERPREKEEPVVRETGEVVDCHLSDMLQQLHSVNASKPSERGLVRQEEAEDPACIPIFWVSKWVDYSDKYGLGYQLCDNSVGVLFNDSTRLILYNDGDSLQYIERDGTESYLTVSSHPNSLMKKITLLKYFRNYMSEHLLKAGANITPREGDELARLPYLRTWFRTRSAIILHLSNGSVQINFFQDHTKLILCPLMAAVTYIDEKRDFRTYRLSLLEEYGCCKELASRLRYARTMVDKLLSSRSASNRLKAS
SGK110 (human), sequence (P0C264 whole entry, looked up): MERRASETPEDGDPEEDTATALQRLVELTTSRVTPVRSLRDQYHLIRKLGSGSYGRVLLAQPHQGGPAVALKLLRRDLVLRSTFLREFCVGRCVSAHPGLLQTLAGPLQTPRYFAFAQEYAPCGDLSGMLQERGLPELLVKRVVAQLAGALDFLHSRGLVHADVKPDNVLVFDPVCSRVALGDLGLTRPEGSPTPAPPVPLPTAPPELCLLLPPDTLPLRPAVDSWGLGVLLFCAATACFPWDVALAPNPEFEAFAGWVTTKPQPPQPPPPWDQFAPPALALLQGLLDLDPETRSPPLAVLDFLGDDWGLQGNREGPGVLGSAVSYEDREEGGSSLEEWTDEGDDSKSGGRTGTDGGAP
RPS6KA2 KD1 (human), sequence (Q15349 whole entry, looked up): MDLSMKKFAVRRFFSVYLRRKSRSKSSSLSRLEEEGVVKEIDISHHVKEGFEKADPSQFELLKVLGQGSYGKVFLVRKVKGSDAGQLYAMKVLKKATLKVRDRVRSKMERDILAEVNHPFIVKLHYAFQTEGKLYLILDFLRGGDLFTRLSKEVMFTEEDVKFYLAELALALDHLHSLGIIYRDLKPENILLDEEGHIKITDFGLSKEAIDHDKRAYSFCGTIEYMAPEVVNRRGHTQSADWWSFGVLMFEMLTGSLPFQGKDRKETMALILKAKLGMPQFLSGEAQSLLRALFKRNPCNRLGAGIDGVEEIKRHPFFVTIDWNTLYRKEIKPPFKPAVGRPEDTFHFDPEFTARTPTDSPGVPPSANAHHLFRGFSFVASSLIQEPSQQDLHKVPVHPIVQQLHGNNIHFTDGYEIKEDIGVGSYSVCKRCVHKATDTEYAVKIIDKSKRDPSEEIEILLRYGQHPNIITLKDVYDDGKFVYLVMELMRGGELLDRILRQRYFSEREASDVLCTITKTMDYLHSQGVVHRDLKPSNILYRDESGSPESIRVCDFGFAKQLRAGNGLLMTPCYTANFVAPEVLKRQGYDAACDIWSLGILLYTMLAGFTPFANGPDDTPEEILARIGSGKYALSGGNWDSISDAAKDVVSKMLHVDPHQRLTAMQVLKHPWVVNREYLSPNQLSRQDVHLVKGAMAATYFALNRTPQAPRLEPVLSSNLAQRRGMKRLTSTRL
CDK18 (human), sequence (Q07002 whole entry, looked up): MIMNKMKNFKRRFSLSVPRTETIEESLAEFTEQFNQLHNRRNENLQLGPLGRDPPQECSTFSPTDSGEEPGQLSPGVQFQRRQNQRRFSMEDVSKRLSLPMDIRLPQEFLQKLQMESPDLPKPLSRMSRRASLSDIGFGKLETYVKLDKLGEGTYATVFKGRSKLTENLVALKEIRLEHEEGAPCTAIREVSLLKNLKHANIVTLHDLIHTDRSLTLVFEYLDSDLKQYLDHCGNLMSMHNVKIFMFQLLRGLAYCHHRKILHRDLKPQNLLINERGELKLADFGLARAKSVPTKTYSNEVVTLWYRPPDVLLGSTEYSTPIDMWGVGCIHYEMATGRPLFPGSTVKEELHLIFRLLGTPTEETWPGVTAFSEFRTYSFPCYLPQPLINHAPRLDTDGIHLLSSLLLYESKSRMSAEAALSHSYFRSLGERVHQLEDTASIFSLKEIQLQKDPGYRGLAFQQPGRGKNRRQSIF

SMILES | kinase still bound, per cent of control (IKBKB (human)) [%] | kinase still bound, per cent of control (MAP3K11 (human)) [%] | kinase still bound, per cent of control (CSNK1G1 (human)) [%] | kinase still bound, per cent of control (CDC42BPG (human)) [%] | kinase still bound, per cent of control (MAPK4 (human)) [%] | kinase still bound, per cent of control (PRKD2 (human)) [%] | kinase still bound, per cent of control (RPS6KA1 KD2 (human)) [%] | kinase still bound, per cent of control (BRSK1 (human)) [%] | kinase still bound, per cent of control (SRPK1 (human)) [%] | kinase still bound, per cent of control (CDK15 (human)) [%] | kinase still bound, per cent of control (CAMK2A (human)) [%] | kinase still bound, per cent of control (DCLK2 (human)) [%] | kinase still bound, per cent of control [1] [%] | kinase still bound, per cent of control (MAP3K10 (human)) [%] | kinase still bound, per cent of control [2] [%] | kinase still bound, per cent of control (RPS6KA2 KD1 (human)) [%] | kinase still bound, per cent of control (ACVRL1 (human)) [%] | kinase still bound, per cent of control (EPHB2 (human)) [%] | kinase still bound, per cent of control (MAPK9 (human)) [%] | kinase still bound, per cent of control (FYN (human)) [%] | further results
C[C@@H](Oc1cc(-n2cnc3ccc(CN4CCN(C)CC4)cc32)sc1C(N)=O)c1ccccc1C(F)(F)F | 74 | 75 | 100 | 100 | 100 | 27 | 71 | 42 | 46 | 67 | 4.9 | 100 | 81 | 92 | 100 | 4 | 100 | 99 | 100 | 100 | kinase still bound, per cent of control (STK11 (human)): 90%; kinase still bound, per cent of control (CHUK (human)): 65%; kinase still bound, per cent of control (WEE1 (human)): 100%; kinase still bound, per cent of control (MAPKAPK2 (human)): 100%; kinase still bound, per cent of control (STK33 (human)): 75%; kinase still bound, per cent of control (TNK2 (human)): 100%; kinase still bound, per cent of control (SGK110 (human)): 100%; kinase still bound, per cent of control (MAP2K2 (human)): 79%; kinase still bound, per cent of control (STK17A (human)): 100%; kinase still bound, per cent of control (NTRK2 (human)): 68%; kinase still bound, per cent of control (RIOK3 (human)): 6.6%; kinase still bound, per cent of control (CDK18 (human)): 100%; kinase still bound, per cent of control (CDK7 (human)): 33%; kinase still bound, per cent of control (MKNK1 (human)): 100%; kinase still bound, per cent of control (PRKACA (human)): 100%; kinase still bound, per cent of control (TTK (human)): 95%; kinase still bound, per cent of control (PDGFRB (human)): 9.8%; kinase still bound, per cent of control (PLK1 (human)): 0.1%; kinase still bound, per cent of control (MYLK2 (human)): 61%
OCCCNc1cc(-c2ccnc(Nc3cccc(Cl)c3)n2)ccn1 | 100 | 100 | 100 | 100 | 100 | 100 | 100 | 100 | 100 | 100 | 100 | 100 | 100 | 100 | 100 | 100 | 100 | 100 | 100 | 100 | kinase still bound, per cent of control (STK11 (human)): 100%; kinase still bound, per cent of control (CHUK (human)): 100%; kinase still bound, per cent of control (WEE1 (human)): 100%; kinase still bound, per cent of control (TAOK3 (human)): 100%; kinase still bound, per cent of control (MAPKAPK2 (human)): 100%; kinase still bound, per cent of control (TNK2 (human)): 100%; kinase still bound, per cent of control (SGK110 (human)): 100%; kinase still bound, per cent of control (MAP2K2 (human)): 100%; kinase still bound, per cent of control (STK17A (human)): 100%; kinase still bound, per cent of control (NTRK2 (human)): 100%; kinase still bound, per cent of control (RIOK3 (human)): 100%; kinase still bound, per cent of control (CDK18 (human)): 100%; kinase still bound, per cent of control (CDK7 (human)): 100%; kinase still bound, per cent of control (MKNK1 (human)): 100%; kinase still bound, per cent of control (PRKACA (human)): 100%; kinase still bound, per cent of control (TTK (human)): 100%; kinase still bound, per cent of control (PDGFRB (human)): 100%; kinase still bound, per cent of control (PLK1 (human)): 100%; kinase still bound, per cent of control (MYLK2 (human)): 100%
Cc1ccc2nc(NCCN)c3ncc(C)n3c2c1 | 0.55 | 87 | 94 | 94 | 89 | 72 | 46 | 90 | 100 | 100 | 78 | 100 | 100 | 100 | 100 | 100 | 93 | 100 | 44 | 100 | kinase still bound, per cent of control (CHUK (human)): 86%; kinase still bound, per cent of control (WEE1 (human)): 100%; kinase still bound, per cent of control (TAOK3 (human)): 59%; kinase still bound, per cent of control (MAPKAPK2 (human)): 100%; kinase still bound, per cent of control (STK33 (human)): 73%; kinase still bound, per cent of control (TNK2 (human)): 100%; kinase still bound, per cent of control (SGK110 (human)): 100%; kinase still bound, per cent of control (MAP2K2 (human)): 77%; kinase still bound, per cent of control (STK17A (human)): 68%; kinase still bound, per cent of control (NTRK2 (human)): 89%; kinase still bound, per cent of control (RIOK3 (human)): 100%; kinase still bound, per cent of control (CDK18 (human)): 100%; kinase still bound, per cent of control (CDK7 (human)): 6.3%; kinase still bound, per cent of control (MKNK1 (human)): 100%; kinase still bound, per cent of control (PRKACA (human)): 100%; kinase still bound, per cent of control (TTK (human)): 100%; kinase still bound, per cent of control (PDGFRB (human)): 57%; kinase still bound, per cent of control (PLK1 (human)): 100%; kinase still bound, per cent of control (MYLK2 (human)): 71%
